Reference: patent publication US7553929B2, “Cell permeable peptides for inhibition of inflammatory reactions and methods of use” (Vanderbilt University, priority 1994, dated 2009)

Tests used:
NIH 3T3 cells [1] = experiment: [3H]thymidine incorporation (mitogenic response) of NIH 3T3 cells; assay type: cell-based
Procedure: A 26-residue hybrid peptide (referred to as SA, listed herein as SEQ ID NO:3) was designed and synthesized. […] Thus, the SA peptide differs from the SM peptide only in its 7-residue carboxyl terminal “cargo” region. A functional assay was performed in which SA peptide was able to induce a mitogenic response of NIH 3T3 cells measured by [^3H]thymidine incorporation in a manner similar to aFGF bearing, the same NLS. ^18
In this functional assay, confluent 3T3 cells grown initially in DMEM containing 10% FBS were transferred to a low serum medium (DMEM containing 0.5% FBS) for 2 days. The test peptides, either SA peptide, SAα pep-tide, ANL peptide, or SM peptide, or aFGF, were added to a fresh low serum medium at the indicated concentrations at 37° C. After 16 hours, [^3H]thymidine was added and 4 hours later, the cells were washed with PBS, treated with trichloroacetic acid, solubilized with 0.15 M NaOH, and the radioactivity was determined in a liquid scintillation counter.
Bars represent the mean±S.E.M. of at least three independent experiments done in triplicate and calculated as multiplicity of counts in the tested sample over the control sample. SA peptide within the concentration range used (0 to 46 μM) was not cytotoxic as determined by staining with fluorescein diacetate/ethidium bromide. ^20

[2] = tested on: baby hamster kidney-21 cells; experiment: Indirect immunofluorescence assay of SM peptide import, baby hamster kidney-21 cells; assay type: cell-based
[3] = tested on: rodent endothelial cell line (LE-II); experiment: Indirect immunofluorescence assay of peptide import, LE-II cells; assay type: cell-based
NIH 3T3 cells [4] = experiment: Indirect immunofluorescence assay of peptide import into NIH 3T3 cells; assay type: cell-based
Text: A 26-residue peptide (referred to as SM, listed herein as SEQ ID NO:1) that contained the predicted signal sequence of Kaposi fibroblast growth factor ^16-17 (K-FGF) was chemically synthesized. An indirect immunofluorescence assay using antibody against epitope tag-containing SM peptide was employed to follow translocation of the SM peptide to the intracellular compartments of NIH 3T3 cells. A polyclonal anti-SM peptide antibody against the SM peptide-keyhole limpet haemocyanin conjugate (Pierce) was raised in rabbits and reacted with SM peptide in ELISA (titer>1:30,000). The intracellular SM peptide was detected by an indirect imrnmunofluorescence assay using affinity-purified anti-SM peptide IgG and rhodamine-labeled anti-rabbit antibody (Kirkegaard & Perry). Briefly, confluent NIH 373 cells on the chamber slides (Nunc) were treated with either 0.5 ml SM peptide solution (100 μg ml^−1) in DMEM containing 10% FBS or with 0.5 ml DMEM containing 10% FBS only for 30 minutes at 37° C. The cells were fixed with 3.5% paraformaldehyde solution in PBS followed by 0.25% Triton X-100 in PBS and then treated with 1:20 anti-SM peptide IgG in PBS containing 0.5% bovine serum albumin (BSA) for 1.5 h. The intracellular SM peptide-antibody complexes were visualized by subsequent incubation with a rhodamine-labeled anti-rabbit polyclonal antibody for 1 h. In control systems, anti-SM peptide antibody was preabsorbed with the SM peptide. Intracellular localization of the SAα peptide was detected by immunofluorescence assay using affinity-purified anti-SM peptide IgG as described above for SM peptide. […] A ten-step z-position sectional scanning of the SM peptide-treated cells by the confocal laser scanning microscopy (CLSM) affirmed that these deposits were intracellular. […] Likewise, cells not exposed to SM peptide or cells exposed to SM peptide followed by the secondary antibody alone were negative. If cells were fixed with paraformaldehyde before peptide treatment, the cellular import of SM peptide was prevented.
To determine the rate of SM peptide import across cell membranes, a kinetic experiment was carried out with the SM peptide-treated NIH 3T3 cells. NIH 3T3 cells were treated at 37° C. with 0.5 ml SM peptide at 100 μg mL^−1 in DMEM containing 10% FBS for 1, 5, 15, 30, 60 and 120 minutes. Intracellular SM peptide deposits were detected by indirect immunofluorescence assay as described above. […] The 30-minute time point was therefore selected to determine the optimal peptide concentrations for detectable import.
To determine the optimal peptide concentration, NIH 3T3 cells were treated for 30 minutes at 37° C. with 0.5 ml SM peptide solution in DMEM containing 10% FBS at the following concentrations: 0, 2, 10, 50, 100, and 150 μg ml^−1. Intracellular localization of the SM peptide was detected by indirect immunofluorescence assay as described above. […] The cellular import was concentration-dependent and reached a plateau between 50 μg/ml and 100 μg/ml.
Transport of the SM peptide across the cell membrane was temperature-dependent. […] Accordingly, cellular import of the SM peptide resumed when the incubation temperature shifted from 4° C. to 37° C.
The intracellular SA peptide could not be tracked by an immunofluorescence assay because it was not recognized by the available anti-SM peptide antibody. However, attaching two extra amino acid residues (Met-Pro) to the carboxyl terminus of the SA peptide produced a modified SA peptide (referred to as SAα, listed herein as SEQ ID NO:4) that contained a 3-amino acid epitope tag, Leu-Met-Pro, recognized by anti-SM peptide antibody in ELISA. […] Like SA peptide, SAα peptide was mitogenic in the thymidine incorporation assay.

[5] = tested on: human umbilical vein endothelial cells; experiment: Indirect immunofluorescence assay of SM peptide import, HUVEC; assay type: cell-based
NIH 3T3 cells [6] = experiment: DNA synthesis by flow cytometric analysis in serum-starved NIH 3T3 cells; assay type: cell-based; details: 15 ng ml^−1, 20 h
Procedure: To further confirm the mitogenic activity of the SA peptide, its effect on DNA synthesis was examined. Serum-starved NIH 3T3 cells were treated with SA peptide, fixed, and the DNA concentration was determined by standard flow cytometric analysis. Specifically, confluent NIH 3T3 cells (1.3×10^6 cells) were serum-starved in DMEM containing 0.5% FBS for 2 days. The cells were untreated (control) or treated with SA peptide or aFGF for 20 h, harvested, spun down, and washed with serum-free PBS, three times. The cells were fixed with methanol precooled to −20° C. for DNA analysis carried out by the Flow Cytometry Research Service of Vanderbilt University. The data were the mean ±S.E.M. of six measurements and were analyzed for statistical significance by analysis of variance.

NIH 3T3 cells [7] = details: aFGF binding to FGF receptors on NIH 3T3 cells; cited from earlier work

| Substance | Mitogenic activity in thymidine incorporation assay (NIH 3T3 cells [1]; comparable concentration ranges) | Intracellular localization by indirect immunofluorescence [2] | Intracellular localization by indirect immunofluorescence [3] | Time at which intracellular staining plateaued (NIH 3T3 cells [4]; 100 μg/mL, 37° C.) | Time at which intracellular staining was first observed (NIH 3T3 cells [4]; 100 μg/mL, 37° C.) [min] | Immunofluorescence staining at 4° C. (NIH 3T3 cells [4]; 100 μg/ml, 30 minutes, 4° C.) | Immunofluorescence staining at 22° C. or 37° C. (NIH 3T3 cells [4]; 100 μg/ml, 30 minutes, 22° C. or 37° C.) | Intracellular peptide deposits by indirect immunofluorescence (NIH 3T3 cells [4]; 100 μg/ml, 30 minutes, 37° C.) | Concentration giving detectable intracellular peptide (NIH 3T3 cells [4]; 30 minutes, 37° C.) [µg/mL] | Concentration giving detectable intracellular peptide (molar) (NIH 3T3 cells [4]; 30 minutes, 37° C.) | Cellular import in cells fixed with paraformaldehyde before peptide treatment (NIH 3T3 cells [4]; cells fixed before treatment) | Intracellular localization by indirect immunofluorescence [5] | Diploid % S Phase (NIH 3T3 cells [6]) | Tyrosine phosphorylation of intracellular proteins (NIH 3T3 cells [7]) | Stimulation of [3H]thymidine incorporation over control (NIH 3T3 cells [1]; serum-starved NIH 3T3 cells, 16 h + 4 h) [fold] |
| --- | --- | --- | --- | --- | --- | --- | --- | --- | --- | --- | --- | --- | --- | --- | --- |
| SM peptide: 26-residue peptide: K-FGF signal sequence, spacer, epitope tag; mutated, loss-of-function NLS; cell-permeable control (AAVALLPAVLLALLAPAAADQNQLMP; 1..16 Note/label = a (“Signal peptide amino acid sequence of K-FGF”)) | Neither control peptide showed any significant mitogenic activity | the same results as with NIH 3T3 cells | the same results as with NIH 3T3 cells | about 30 minutes | ≤ 5 | No immunofluorescence staining was observed | numerous punctate deposits | intracellular deposits were observed in almost all cells | 2 | about 800 nM | prevented | the same results as with NIH 3T3 cells |  |  |  |
| aFGF: acidic fibroblast growth factor |  |  |  |  |  |  |  |  |  |  |  |  | 27.8 ± 2.3 (P < 0.05) % | induces the tyrosine phosphorylation | ~8 |
